Residues, ends and D or L forms follow the SMILES beside them.
How the values were obtained:
N2A cells = test: Example 23: caspase activity (FLICA kit); format: cell-based; design: dose or concentration left out as unconfirmed; details: 12 hours
Procedure: N2A cells will be grown on 96-well plates, treated with t-BHP (0.05 mM) in the presence of vehicle, peptide conjugates, aromatic-cationic peptides, or SPN10(s) with or without aromatic-cationic peptides at 37° C. for 12-24 hours. All treatments will be carried out in quadruplicate. N2A cells will be incubated with t-BHP ([…]) alone or in the presence of peptide conjugates, aromatic-cationic peptides, or SPN10(s) with or without aromatic-cationic peptides at 37° C. for 12 hours. Cells will be gently lifted from the plates with a cell detachment solution (Accutase, Innovative Cell Technologies, Inc., San Diego, CA, U.S.A.) and will be washed twice in PBS. Caspase activity will be assayed using a FLICA kit (Immunochemistry Technologies LLC, Bloomington, MN). According to the manufacturer's recommendation, cells will be resuspended (approx. 5×10^6 cells/mL) in PBS and labeled with pan-caspase inhibitor FAM-VAD-FMK for 1 hour at 37° C. under 5% CO2 while protected from light. Cells will then be rinsed to remove the unbound reagent and fixed. Fluorescence intensity in the cells will be measured by a laser scanning cytometer (Beckman-Coulter XL, Beckman Coulter, Inc., Fullerton, CA, U.S.A.) using the standard emission filters for green (FL1). For each run, 10,000 individual events will be collected and stored in list-mode files for off-line analysis.

Sprague Dawley rats = test: Example 51: burn-induced hypermetabolism and UCP-1 expression in brown adipose tissue; format: in vivo, rat
Source text: Methods. Sprague Dawley rats will be randomly divided into the following groups; sham (S), sham with saline vehicle (SSal), sham with peptide conjugate-treatment (SC), sham with aromatic-cationic peptides (SC2), sham with SPN10(s) (SC3), sham with SPN10(s)+aromatic-cationic peptides (SC4), burn with saline vehicle (BSal), burn with peptide conjugate-treatment (BC), burn with aromatic-cationic peptides (BC2), burn with SPN10(s) (BC3) and burn with SPN10(s)+aromatic-cationic peptides (BC4). The dorsal aspect of burn subjects will be immersed into 100° C. water for 12 seconds to produce third degree 30% TBSA burns under general anesthesia. Sham burn will be produced by immersion in lukewarm water. Subjects will receive 40 mL/kg intraperitoneal saline injection for the resuscitation following the injury. A venous catheter will be placed surgically into the right jugular vein subsequent to sham or burn injury. […] Indirect calorimetry will be performed for 24 hours at 6 days after burn injury in a TSE Indirect Calorimetry System (TSE Co., Germany), and VO2, VCO2 and energy expenditure will be recorded every six minutes. Interscapullar brown adipose tissue will be collected after the indirect calorimetry, and UCP-1 expression in the brown adipose tissue will be evaluated by Western blot.

[1] = test system: fatty (fa/fa) Zucker rats; test: Example 36: insulin resistance in fatty Zucker rats; format: in vivo, rat; details: approximately 6 weeks
Procedure: Peptide conjugates (1.0-5.0 mg/kg body wt); aromatic-cationic peptides (an equivalent molar dose of aromatic-cationic peptide based on the concentration of the aromatic-cationic peptide administered in the peptide conjugate treatment group); SPN10(s) (an equivalent molar dose of SPN10 based on the concentration of SPN10 administered in the peptide conjugate treatment group); or SPN10(s) in combination with aromatic-cationic peptides (e.g., an equivalent molar dose of SPN10 based on the concentration of SPN10 administered in the peptide conjugate treatment group and an equivalent molar dose of aromatic-cationic peptide based on the concentration of aromatic-cationic peptide administered in the peptide conjugate treatment group) will be administered to the rats intraperitoneally (i.p.) or orally (drinking water or oral gavage).
Physiological parameters measured will include body weight, fasting glucose/insulin/free fatty acid, oral glucose tolerance (OGTT), in vitro muscle insulin sensitivity (in vitro incubation), biomarkers of insulin signaling (Akt-P, IRS-P), mitochondrial function studies on permeabilized fibers (respiration, H2O2 production), biomarkers of intracellular oxidative stress (lipid peroxidation, GSH/GSSG ratio, aconitase activity), and mitochondrial enzyme activity. Control animals will include wild-type and untreated fatty rats. […]

## N=C(N)NCCC[C@H](NC(=O)[C@@H](N)Cc1c[nH]c2ccccc12)C(=O)N[C@@H](Cc1c[nH]c2ccccc12)C(=O)N[C@@H](CCCCN)C(N)=O [SPN10, H-L-Trp-L-Arg-L-Trp-L-Lys-NH2] (H-WRWK-NH2)
N2A cells
  increase in caspase activity by t-BHP: dose-dependently inhibited
Sprague Dawley rats; burn groups BC, BC2, BC3, BC4 vs BSal
  UCP-1 levels in brown adipose tissue (Western blot): lower than in the BSal group
Sprague Dawley rats; infused for 7 days
  increase in VO2, VCO2, and energy expenditure after burn: significantly attenuate this effect
[1]; Zucker rats (~12 weeks of age)
  whole body and muscle insulin resistance (treatment): reduce the whole body and muscle insulin resistance
[1]; young Zucker rats (~3-4 weeks of age)
  development of whole body and muscle insulin resistance (prevention): attenuate or prevent the development of whole body and muscle insulin resistance

Reference: US20240108740A1, “THERAPEUTIC COMPOSITIONS INCLUDING SPN10 AND USES THEREOF” (Stealth BioTherapeutics Inc., priority 2022, published 2024)
